Converted amounts (≈) assume the structure as drawn.
Target: α-amylase
Assay: starch hydrolysis, dinitrosalicylic acid assay at […] nm
Assay type: biochemical

Compound: CC[C@H](/C=C/[C@@H](C)[C@H]1CC[C@H]2[C@@H]3CC=C4C[C@@H](O)CC[C@]4(C)[C@H]3CC[C@]12C)C(C)C [stigmasterol]
- IC50: 89.27 µg/mL (≈ 216 µM)

— paper PMC8481687, “Anti-diabetic Potential of a Stigmasterol From the Seaweed Gelidium spinosum and Its Application in the Formulation of Nanoemulsion Conjugate for the Development of Functional Biscuits” (Frontiers in Nutrition, 2021)
